This note sets out measurements from US20250352518A1, “A BENZIMIDAZOLE COMPOUND WITH ANTIHELMINTHIC ACTIVITY FOR USE IN REVERSING, ARRESTING OR SLOWING DOWN CELLULAR AGEING IN A VERTEBRATE SUBJECT” (RAVAN BIO LIMITED, priority 2022, published 2025).

The subject of test [1] is post-confluent NHEK cells. Nature of the test: Growth of re-cultured post-confluent (cell-cell contact growth arrested) NHEK's. The class given is cell-based, human. As to conditions: for concentration causing optimal cell growth: post-confluent NHEK. The source says: Neonatal human epidermal foreskin keratinocytes (NHEKs) were used to test the ability of compounds to reverse, arrest or slow down cellular ageing. These cells typically undergo approximately 35 cell divisions before the Hayflick limit is reached but they can be induced to undergo premature senescence and, what has been understood to be, irreversible growth arrest earlier than this by induction of cell-cell contact growth inhibition when cultured at high cell density/to confluence (Poumay & Pittelkow 1995 J Inv Dermatol 104, p 271-276). The inventors were thus inspired to culture post-confluent cells and assess the effect of test compounds on the growth, telomere loss and secretion of inflammatory factors by such cells. An experimental schematic is provided as FIG. 1. 1.1 Culture of Early Passage NHEK's in the Presence and Absence of y27632 Pooled donor neonatal NHEK's (Cat No C-12005, Lot No 456Z001.1, PromoCell GmBH), serum-free PromoCell Keratinocyte Growth Medium 2 (KSFM, Cat No C20011. Lot No 472M197), CaCl2) (Lot No 471055) and Supplements (Lot No 472M013) were all obtained from PromoCell GmBH. NHEK's were thawed directly into a single T75 in 20 mls of complete KSFM (CaCl2 & Supplements), incubated over night at 37° C., 5% CO2 and the medium changed the following day. After 3 days the cells were 80% confluent and were passaged (Ist) using 0.05% Trypsin+EDTA (Gibco) into ×2 T75 flasks at a split ratio of 1:4. After overnight incubation at 37° C., 5% CO2, the cultures were at 30% confluence and 10 μM Y27632 (Cat No 688000, Lot No 2884132, Merck) was added to one of the flasks. […] Fresh T75 flasks were seeded with 5.0×10^5 cells from each in their respective medium. […] Fresh T75 flasks were seeded, as described previously, and also 1.2×10^4 NHEK cells/well were seeded into 24 well plates, incubated overnight to allow cell attachment, and the following subsequently added to separate wells: • A. NHEK in complete KSFM • B. NHEK+Y27632 in complete KSFM • C. Y27632 treated NHEK transferred to complete KSFM (Y27632 Removed) • D. NHEK transferred to complete KSFM+500 nM Tadalafil • E. NHEK transferred to complete KSFM+750 nM Tadalafil • F. NHEK transferred to complete KSFM+1000 nM Tadalafil • G. NHEK transferred to complete KSFM+1250 nM Tadalafil • H. NHEK transferred to complete KSFM+50 nM Fenbendazole • I. NHEK transferred to complete KSFM+100 nM Fenbendazole • J. NHEK transferred to complete KSFM+150 nM Fenbendazole • K. NHEK transferred to complete KSFM+200 nM Fenbendazole All drugs were added 24 hours after seeding. […] FIG. 2B is an example of the appearance of post-confluent cells.
Post-confluent NHEK's (FIG. 2B) were subsequently passaged (4th) into a fresh 24 well plate using a split ratio of 1 in 4 in 2 mls of fresh complete KSFM. These were left overnight to attach and the same compounds added (as shown in A-K of 1.1) followed by incubation for a further 24 hours and subsequently photographed.

The nature of test [2]: Rat 4 month medicated feed study: relative telomere length in buccal swab DNA (qPCR). The class given is in vivo, Sprague-Dawley rats. The note with it: buccal swabs after 4 months feed; control 1.37 (SD=0.38). The source says: Seventy-eight Sprague-Dawley rats aged either 16 or 22 months were maintained with daily 12-hour light/dark cycles and allowed constant access to feed and water. The animals were bred and housed at the Cantacuzino National Medico-Military Institute for Research and Development, Bucharest 050096, Romania. […] A buccal swab was then taken from each animal using an OracollectDNA OCR-100 sampling device (DNA Genotek, Canada). DNA was extracted using a DNeasy® Blood & Tissue Kit (Qiagen UK, Cat No 69505) which was checked for purity and quantified with a QuickDrop Spectrophotometer (Molecular Devices, Model 504 7178). […] R8908) was used. Five consecutive samples from each of the three treatment groups were analysed on each 96 well PCR plate to minimize any inter-plate variability.
On the technique in general: Quantitative PCR measures a nucleic acid by following its amplification.

Regarding `COC(=O)Nc1nc2ccc(Sc3ccccc3)cc2[nH]1` [Fenbendazole, methyl 5-(phenylthio)-2-benzimidazole carbamate], the “continued growth of post-confluent NHEK's (phase contrast)” value in test [1] (passage 4, 24 hours with compound, 10 μM Y27632, 500-1250 nM Tadalafil, 50-200 nM Fenbendazole, FIG. 3) is given as “all exhibited cell growth”. Besides, the “concentration causing optimal cell growth” value in test [1] (cultured for a further 24 hrs, FIG. 4) lay within 100 to 150 nM; in test [1] (passage 4, 24 hours, FIG. 3), 100 to 150 nM. Further, the “average telomere length, times that in DNA from a 30 month old comparator” value in test [2] is recorded as 1.59 (SD=0.48).
